The results in this text go back to US20260158017A1, “KIF18A INHIBITOR” (WIGEN BIOMEDICINE TECHNOLOGY (SHANGHAI) CO., LTD., priority 2021, published 2026).

Molecules are shown by their SMILES. Where only a bound is given, the exact number is not on record here.

T1 sequence (Q8NI77 1-467): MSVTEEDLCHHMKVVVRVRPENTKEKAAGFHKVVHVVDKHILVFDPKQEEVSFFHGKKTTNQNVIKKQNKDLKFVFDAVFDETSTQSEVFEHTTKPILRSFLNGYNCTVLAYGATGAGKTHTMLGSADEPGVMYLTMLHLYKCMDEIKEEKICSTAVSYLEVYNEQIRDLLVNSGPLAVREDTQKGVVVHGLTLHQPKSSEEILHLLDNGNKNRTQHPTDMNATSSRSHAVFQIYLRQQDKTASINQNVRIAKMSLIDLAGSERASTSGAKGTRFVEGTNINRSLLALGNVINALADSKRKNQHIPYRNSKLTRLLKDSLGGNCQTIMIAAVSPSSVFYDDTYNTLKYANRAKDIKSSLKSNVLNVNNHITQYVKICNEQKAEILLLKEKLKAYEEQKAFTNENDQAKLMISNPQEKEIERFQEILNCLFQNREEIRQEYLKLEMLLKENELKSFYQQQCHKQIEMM
T1 sequence (P02550 whole entry partner): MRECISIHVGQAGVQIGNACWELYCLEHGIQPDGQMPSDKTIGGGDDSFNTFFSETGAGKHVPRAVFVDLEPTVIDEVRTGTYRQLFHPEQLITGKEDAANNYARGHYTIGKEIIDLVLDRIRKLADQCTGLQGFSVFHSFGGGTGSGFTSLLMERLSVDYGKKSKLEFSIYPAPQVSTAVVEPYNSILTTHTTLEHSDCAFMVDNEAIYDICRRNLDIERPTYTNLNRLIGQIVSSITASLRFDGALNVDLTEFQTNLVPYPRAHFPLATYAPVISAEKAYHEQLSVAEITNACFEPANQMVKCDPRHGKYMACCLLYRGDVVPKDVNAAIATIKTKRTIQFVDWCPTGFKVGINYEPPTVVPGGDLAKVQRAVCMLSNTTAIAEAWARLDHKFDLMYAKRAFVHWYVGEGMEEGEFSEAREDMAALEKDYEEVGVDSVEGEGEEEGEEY
T1 sequence (P02554 whole entry partner): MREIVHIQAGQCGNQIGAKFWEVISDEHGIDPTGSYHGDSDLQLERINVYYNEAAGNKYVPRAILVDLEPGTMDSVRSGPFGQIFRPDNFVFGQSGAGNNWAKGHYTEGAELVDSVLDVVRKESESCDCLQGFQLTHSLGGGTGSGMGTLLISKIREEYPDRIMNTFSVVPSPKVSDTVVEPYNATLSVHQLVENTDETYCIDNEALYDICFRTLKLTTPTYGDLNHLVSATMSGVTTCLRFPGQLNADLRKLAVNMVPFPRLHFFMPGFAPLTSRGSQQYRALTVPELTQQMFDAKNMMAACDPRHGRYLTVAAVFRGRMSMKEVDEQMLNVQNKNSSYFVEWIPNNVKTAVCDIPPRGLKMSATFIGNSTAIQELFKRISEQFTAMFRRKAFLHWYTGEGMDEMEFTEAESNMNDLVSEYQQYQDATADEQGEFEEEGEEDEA

The experiment concerns the target T1, Recombinant human KIF18A (1-467His-tagged) protein (Homo sapiens, UniProt Q8NI77).
T1 construct: Recombinant human KIF18A (1-467His-tagged) protein; His; made in house
Put plainly: KIF18A enzyme assay (microtubule-stimulated ATPase activity, ADP-Glo). The following applies: 30 nM KIF18A, 75 μM ATP, 30 μg/mL pig microtubules; read-out: Inhibitory activity against KIF18A IC50. Format: biochemical. The method, boiled down:
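Buffer 15 mM Tris pH 7.5, 10 mM MgCl2, 0.01% Pluronic F-68, 1 μM paclitaxel, 30 μg/mL pig microtubules; reactions at room temperature. IC50 from inhibition relative to DMSO.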
Background: ADP-Glo turns the ADP formed in a reaction into a luminescent signal.
Usually IC50 stands for the concentration that gives 50% inhibition. `COc1ccc(NC(=O)c2ccc(S(=O)(=O)NCCO)cc2N2CCC3(CC2)CC3)nc1N1CCO[C@H](C)C1` [Compound 274]: the IC50 was at most 100 nM.

In the case of `CSc1ccc(NC(=O)c2ccc(NS(=O)(=O)CCO)cc2N2CCC3(CC2)CC3)nc1N1CCOCC1` [Compound 604], the IC50 is at most 100 nM.

For `COc1ccc(NC(=O)c2ccc(S(=O)(=O)NCCO)cc2N2CCC3(CC2)CC3)nc1N1CCC(C)(F)C1` (stereo not drawn) [Compound 280], the IC50 was at most 100 nM.

Consider `O=C(Nc1ccc(OCF)c(N2CCOCC2)c1)c1ccc(NS(=O)(=O)CCO)cc1N1CCC2(CC1)CC2` [Compound 396], for which the IC50 is at most 100 nM.

Regarding `C[C@H](CO)S(=O)(=O)Nc1cc(N2CCC3(CC2)CC3)c(C(=O)Nc2ccc(OCF)c(N3CCC(F)(F)CC3)n2)cn1` [Compound 494], the IC50 was at most 100 nM.

For `COc1ccc(C(=O)Nc2ccc(S(=O)(=O)NCCO)cc2N2CCC3(CC2)CC3)nc1N1CCO[C@@H](C)C1` [Compound 339], the IC50 is at most 100 nM.

For `CSc1ccc(NC(=O)c2cnc(NS(=O)(=O)CCO)cc2N2CCC3(CC2)CC3)cc1N1CCC(C)(F)C1` (stereo not drawn) [Compound 616], the IC50 was at most 100 nM.

Take `COc1ccc(C(=O)Nc2ccc(S(=O)(=O)NCCO)cc2N2CCC3(CC2)CC3)nc1N1CCC(C)(F)C1` (stereo not drawn) [Compound 344]: the IC50 is at most 100 nM.

As for `C[C@H](CO)S(=O)(=O)Nc1ccc(C(=O)Nc2ccc([N+](=O)[O-])c(N3CCC(F)(F)CC3)c2)c(N2CCC3(CC2)CC3)c1` [Compound 14], the IC50 is at most 100 nM.

As for `C[C@@H]1CN(c2nc(NC(=O)c3cnc(NS(=O)(=O)[C@@H](C)CO)cc3N3CCC4(CC3)CC4)ccc2OCF)CCO1` [Compound 495], the IC50 is at most 100 nM.

`COc1ccc(C(=O)Nc2ccc(S(=O)(=O)NCCO)cc2N2CCC3(CC2)CC3)nc1NC(C)(C)CO` [Compound 347]: the IC50 was at most 100 nM.

`O=C(Nc1ccc(S(=O)(=O)NCCO)cc1N1CCC2(CC1)CC2)c1ccc(OCF)c(N2CC3CC3C2)n1` (stereo not drawn) [Compound 570]: the IC50 was 100 to 500 nM.

For `COc1ccc(C(=O)Nc2cnc(S(=O)(=O)NCCO)cc2N2CCC3(CC2)CC3)nc1NC(C)(C)CO` [Compound 379], the IC50 was at most 100 nM.

As for `C[C@@H]1CN(c2nc(NC(=O)c3ccc(NS(=O)(=O)CCO)cc3N3CCC4(CC3)CC4)ccc2OCF)CCO1` [Compound 418], the IC50 is at most 100 nM.

Turning to `CC(C)(CO)Nc1cc(C(=O)Nc2ccc(S(=O)(=O)NCCO)cc2N2CCC3(CC2)CC3)ccc1[N+](=O)[O-]` [Compound 59], the IC50 was 100 to 500 nM.

For the compound `O=C(Nc1ccc([N+](=O)[O-])c(OC2CCC2)n1)c1ccc(S(=O)(=O)NCCO)cc1N1CCC2(CC1)CC2` [Compound 87], the IC50 is at most 100 nM.

In the case of `O=C(Nc1ccc(NS(=O)(=O)CCO)cc1N1CCC2(CC1)CC2)c1ccc(OCF)c(OC2CCC2)c1` [Compound 519], the IC50 was at most 100 nM.

Take `C[C@@H]1CN(c2cc(NC(=O)c3cnc(S(=O)(=O)NCCO)cc3N3CCC4(CC3)CC4)ccc2OCF)CCO1` [Compound 402]: the concentration for half-maximal inhibition (IC50) is at most 100 nM.

With `O=C(Nc1ccc(OCF)c(N2CCC3(CC3)C2)n1)c1ccc(NS(=O)(=O)CCO)cc1N1CCC2(CC1)CC2` [Compound 422], the IC50 was at most 100 nM.

Take `C[C@H](CO)S(=O)(=O)Nc1ccc(NC(=O)c2ccc(OCF)c(N3CCC(F)(F)CC3)n2)c(N2CCC3(CC2)CC3)c1` [Compound 558]: the IC50 was at most 100 nM.

Consider `COc1ccc(C(=O)Nc2cnc(S(=O)(=O)NCCO)cc2N2CCC3(CC2)CC3)nc1OCCC(F)(F)F` [Compound 373], for which the half-inhibitory concentration (IC50) is at most 100 nM.

Turning to `COc1ccc(NC(=O)c2cnc(S(=O)(=O)NCCO)cc2N2CCC3(CC2)CC3)nc1N1CCC2(CC2)C1` [Compound 310], the IC50 is at most 100 nM.

On to `O=C(Nc1ccc(OCF)c(N2CCOCC2)c1)c1ccc(S(=O)(=O)NCCO)cc1N1CCC2(CC1)CC2` [Compound 412], for which the IC50 is at most 100 nM.

For the compound `CC1(F)CCN(c2nc(C(=O)Nc3ccc(S(=O)(=O)NCCO)cc3N3CCC4(CC3)CC4)ccc2OCF)C1` (stereo not drawn) [Compound 568], the IC50 lay in the range of 100 to 500 nM.
